Some test systems named below: SNB-19; EKVX; HCT-15; NCI-H226; ACHN; UACC-257; SNB-75; M14; BT-549; SF-268; CAKI-1; HCC 2998; 786-0; SK-MEL-2; MDA-MB-435; NCI-H23; KM12; A498; OVCAR-3; SK-OV-3.
Holding throughout (assay): NCI anticancer screen, dose series, 48 h

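Where inhibition never reached the appropriate level, the endpoint shown equals the highest concentration tested. Otherwise, values were interpolated linearly from a five-concentration, 48-hour dose response in 96-well plates. The concentration for 50% growth inhibition is given as GI50.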 Activity calls are given as the source filed them. Rule as the data show it: active = GI50 up to about 1.1 µM and inactive = higher. Some results are limits rather than exact numbers.

As to `O=c1[nH]c(=O)n(C/C=C/CBr)nc1Br`, the GI50 in the assay with SNB-19 is 14.7 µM (inactive); in the assay with EKVX it was 15.1 µM (inactive); in the assay on HCT-15 it was 14.5 µM; in the assay on NCI-H226, 13.9 µM (inactive); in the assay with ACHN, 13 µM (inactive); in the assay with UACC-257, 12.3 µM (inactive). Also, the GI50 in the assay with SNB-75 is 12 µM (inactive); in the assay with M14, 13.9 µM (inactive); in the assay on BT-549 it was 14.5 µM (inactive); with SF-268 it was 14.1 µM (inactive); with CAKI-1, 11.9 µM (inactive); in the assay with HCC 2998, 14.9 µM (inactive). Moreover, the GI50 in the assay with 786-0 is 12.6 µM (inactive); with SK-MEL-2, 12.6 µM (inactive); in the assay on MDA-MB-435 it was 13.6 µM (inactive); with NCI-H23 it was 12.6 µM (inactive); in the assay on KM12, 14.9 µM (inactive); with A498, 13.5 µM (inactive). Besides, the GI50 with OVCAR-3 was 11.6 µM (inactive).
In the case of `CCCCCCCCCCCCCCCCCCNc1ccn(C2OC(COP(=O)(O)OCC3OC(n4cc(F)c(=O)[nH]c4=O)CC3O)C(O)C2O)c(=O)n1` (stereo not given), the GI50 with SNB-19 is 20.2 µM (inactive); with EKVX, 14.5 µM (inactive); in the assay with HCT-15, 16.3 µM; with ACHN, 0.778 µM (active); in the assay on UACC-257 it was > 89.7 µM (inactive); in the assay on SNB-75, 1.18 µM (inactive). In addition, the GI50 in the assay on M14 was 3.31 µM (inactive); with BT-549 it was 11.7 µM (inactive); in the assay with SF-268, 0.0914 µM (active); in the assay with CAKI-1, 1.16 µM (inactive); in the assay on HCC 2998 it was < 0.01 µM (active); in the assay with 786-0, 2.19 µM (inactive). The GI50 in the assay with SK-MEL-2 is 51.9 µM (inactive); with MDA-MB-435, 37.9 µM (inactive); in the assay on NCI-H23, 1.48 µM (inactive); in the assay on KM12, 15.5 µM (inactive); with A498 it was 33.3 µM (inactive); in the assay with OVCAR-3, 7.67 µM (inactive). In addition, the GI50 in the assay on SK-OV-3 is 27.5 µM (inactive).
For `COc1ccc(-c2c(C(=O)Nc3ccccc3)c(-c3ccccc3)n(C3OC(CO)C(O)C(O)C3O)c(=S)c2C#N)cc1` (stereo not given), the GI50 in the assay with SNB-19 was > 100 µM (inactive); in the assay with EKVX it was > 100 µM (inactive); in the assay with HCT-15, more than 100 µM; with NCI-H226, > 100 µM (inactive); in the assay on ACHN, > 100 µM (inactive); with UACC-257, > 100 µM (inactive). Moreover, the GI50 was > 100 µM (inactive) in the assay on M14; 0.719 µM (active) with BT-549; > 100 µM (inactive) in the assay on SF-268; > 100 µM (inactive) with CAKI-1; > 100 µM (inactive) in the assay with HCC 2998; > 100 µM (inactive) in the assay on 786-0. The GI50 with MDA-MB-435, in the assay with NCI-H23, in the assay with KM12, with A498 and in the assay with OVCAR-3 was > 100 µM (inactive) each time.
`CCOC(=O)NN(C(=O)OCC)C(=C(C1=CCCCC1)N1CCOCC1)N(NC(=O)OCC)C(=O)OCC`: the GI50 in the assay on SNB-19 is > 100 µM (inactive); in the assay on EKVX, > 100 µM (inactive); in the assay on HCT-15, more than 100 µM; in the assay with NCI-H226, > 100 µM (inactive); in the assay on ACHN it was > 100 µM (inactive); in the assay with SNB-75, > 100 µM (inactive). Further, the GI50 with M14, in the assay on BT-549, with SF-268, with CAKI-1, in the assay with HCC 2998 and in the assay on 786-0 was > 100 µM (inactive) in each case. Further, the GI50 with MDA-MB-435, in the assay on NCI-H23, with KM12, with A498, in the assay with OVCAR-3 and in the assay with SK-OV-3 was > 100 µM (inactive) each time.
As for `Cc1cc2cc3c(Cl)c(CCCl)c(C)nc3cc2c(Cl)c1CCCl`, the GI50 with SNB-19 is 16.4 µM (inactive); in the assay on EKVX, 2.87 µM (inactive); in the assay with HCT-15, 24.9 µM; in the assay on NCI-H226 it was 3.73 µM (inactive); with ACHN, 20.9 µM (inactive); with UACC-257 it was 18 µM (inactive). For the same compound, the GI50 in the assay with SNB-75 was 17 µM (inactive); in the assay on BT-549 it was 19.9 µM (inactive); with SF-268, 11.2 µM (inactive); in the assay with HCC 2998, 17.5 µM (inactive); in the assay on 786-0 it was 24.5 µM (inactive); in the assay on MDA-MB-435, 15.6 µM (inactive). Moreover, the GI50 with NCI-H23 was 21.8 µM (inactive); with KM12, 17.9 µM (inactive); in the assay on A498 it was 19.2 µM (inactive); in the assay with OVCAR-3, 13.5 µM (inactive).
Turning to `CCCCC1=CC1(C#N)[N+](=O)[O-]` (stereo not given), the GI50 in the assay with SNB-19 is > 100 µM (inactive); in the assay on EKVX, > 100 µM (inactive); in the assay on HCT-15 it was more than 100 µM; in the assay on NCI-H226, > 100 µM (inactive); with ACHN, > 100 µM (inactive); in the assay on UACC-257 it was > 100 µM (inactive). For the same compound, the GI50 with SNB-75 is 39.9 µM (inactive); with M14 it was 30.8 µM (inactive); with BT-549 it was 40.6 µM (inactive); in the assay on SF-268 it was > 100 µM (inactive); in the assay on CAKI-1, > 100 µM (inactive); with HCC 2998, > 100 µM (inactive). Moreover, the GI50 with 786-0 is 72.4 µM (inactive); with MDA-MB-435, > 100 µM (inactive); in the assay with NCI-H23, > 100 µM (inactive); with KM12, > 100 µM (inactive); in the assay on A498, 76.2 µM (inactive); in the assay on OVCAR-3 it was > 100 µM (inactive). Also, the GI50 in the assay with SK-OV-3 was > 100 µM (inactive).
Turning to `COc1cc(OCc2ccc3oc(=O)c(-c4ccccc4)nc3c2)cc(OC)c1OC`, the GI50 in the assay with SNB-19 is > 100 µM (inactive); with HCT-15, more than 100 µM; in the assay with NCI-H226, > 100 µM (inactive); in the assay on ACHN, > 100 µM (inactive); with UACC-257, > 100 µM (inactive); in the assay on SNB-75, > 100 µM (inactive). The GI50 in the assay on M14, in the assay on BT-549, in the assay with SF-268, in the assay with HCC 2998, in the assay on 786-0 and in the assay on SK-MEL-2 was > 100 µM (inactive) throughout. The GI50 in the assay on MDA-MB-435, in the assay with NCI-H23, in the assay on A498, with OVCAR-3 and with SK-OV-3 was > 100 µM (inactive) throughout.
With `O=C(OCc1ccccc1)N1CCNCCNCC1`, the GI50 in the assay with SNB-19 is > 100 µM (inactive); with EKVX, > 100 µM (inactive); in the assay on HCT-15 it was more than 100 µM; with NCI-H226, > 100 µM (inactive); in the assay on ACHN, > 100 µM (inactive); in the assay on UACC-257, > 100 µM (inactive). Further, the GI50 with M14, in the assay with BT-549, in the assay on SF-268, in the assay with CAKI-1, in the assay with HCC 2998 and with 786-0 was > 100 µM (inactive) each time. The GI50 in the assay on SK-MEL-2, in the assay with MDA-MB-435, in the assay with NCI-H23, in the assay with KM12, in the assay with A498 and with OVCAR-3 was > 100 µM (inactive) each time.
Take `NC1C2C(CC(=O)O)OCC=C3CN4CCC1(C(=O)C(=O)O)C4CC32` (stereo not given): the GI50 in the assay on SNB-19 is > 100 µM (inactive); in the assay on EKVX it was > 100 µM (inactive); in the assay on HCT-15, more than 100 µM; in the assay with NCI-H226, > 100 µM (inactive); in the assay on ACHN, > 100 µM (inactive); with UACC-257, > 100 µM (inactive). The GI50 in the assay on SNB-75, in the assay with M14, in the assay with BT-549, with SF-268, with CAKI-1 and in the assay on 786-0 was > 100 µM (inactive) in each case. The GI50 in the assay with SK-MEL-2, in the assay on MDA-MB-435, in the assay on NCI-H23, in the assay with KM12, in the assay with A498 and in the assay on OVCAR-3 was > 100 µM (inactive) in each case. For the same compound, the GI50 with SK-OV-3 is > 100 µM (inactive).
As for `CCN(CCCl)CCCCNc1c2ccccc2nc2ccc(OC)cc12`, the GI50 was 0.918 µM (active) in the assay on SNB-19; 0.723 µM (active) in the assay on EKVX; 0.752 µM in the assay with HCT-15; 0.102 µM (active) in the assay on NCI-H226; 0.178 µM (active) in the assay on ACHN; 2.67 µM (inactive) with UACC-257. The GI50 is 0.472 µM (active) in the assay on SNB-75; 1.12 µM (inactive) in the assay with M14; 1.38 µM (inactive) in the assay on BT-549; 0.171 µM (active) in the assay with SF-268; 0.394 µM (active) in the assay with CAKI-1; 0.157 µM (active) with 786-0. The GI50 in the assay on SK-MEL-2 was 0.662 µM (active); in the assay with MDA-MB-435 it was 0.427 µM (active); in the assay on NCI-H23, 0.276 µM (active); in the assay with KM12 it was 0.356 µM (active); with A498, 0.379 µM (active); in the assay with OVCAR-3, 1.15 µM (inactive). For the same compound, the GI50 with SK-OV-3 was 1.24 µM (inactive).
With `O=C(O)c1ccccc1/C=C1\Cc2ccc3c(c2C1=O)CCCC3`, the GI50 was 39.4 µM (inactive) in the assay on SNB-19; 43.3 µM (inactive) with EKVX; 37.1 µM in the assay on HCT-15; 28.6 µM (inactive) in the assay on NCI-H226; 36.5 µM (inactive) in the assay on ACHN; 25.1 µM (inactive) in the assay on UACC-257. In addition, the GI50 with SNB-75 was 27 µM (inactive); in the assay with M14 it was 28.9 µM (inactive); in the assay on BT-549, 41 µM (inactive); in the assay on SF-268, 64 µM (inactive); in the assay on HCC 2998, 31.3 µM (inactive); in the assay on 786-0, 98.9 µM (inactive). Further, the GI50 in the assay with SK-MEL-2 is 31.3 µM (inactive); with MDA-MB-435 it was 44.7 µM (inactive); with NCI-H23 it was 26.1 µM (inactive); with KM12 it was 39.8 µM (inactive); in the assay on A498, 30.8 µM (inactive); in the assay on OVCAR-3, 31 µM (inactive). Also, the GI50 in the assay with SK-OV-3 was 94.8 µM (inactive).

Source of the values: ChEMBL document CHEMBL1201862, “PubChem BioAssay data set” (2004).
